We go through 13 molecules from patent publication US8334294B2, “4,8-diphenyl-polyazanaphthalene derivatives” (Almirall, S.A., priority 2007, dated 2012).

pIC50: −log10 of the molar value.

For the experiment, the target named is T1, human p38alfa (SAPKa) enzyme (Homo sapiens, UniProt Q16539).
T1 construct: purchased University of Dundee
Description: p38 enzymatic activity inhibition assay (FRET, ATF2 substrate). Format: biochemical. Particulars: 1 h pre-incubation; ATF2 0.62 μM, ATP 60 μM; 1 h at 25° C.; read-out: p38α IC50. Here is the method:
Enzymatic activity assay was performed in 96-well microtiter plates (Corning, catalog number #3686) using a total volume of 50 μl of an assay buffer composed of 50 mM HEPES pH 7.5, 10 mM MgCl2, 1.75 mM Na3VO4.
Various concentrations of the test compound or vehicle controls were pre-incubated for one hour with 0.055 μg/ml of the human p38alfa (SAPKa) enzyme (obtained from University of Dundee). The reaction started by addition of biotinylated ATF2 substrate and ATP in concentrations around their Km values (final concentration 0.62 μM and 60 μM respectively) and took place for one hour at 25° C. Addition of the detection reagents, streptavidin-XL665 and anti-phosphoresidue antibody coupled to Europium cryptate, caused the juxtaposition of the cryptate and the XL665 fluorophore, resulting in fluorescence energy transfer (FRET). The FRET intensity depends on the amount of bounded cryptate antibody, which is proportional to the extent of substrate phosphorylation. FRET intensity was measured using Victor 2V spectrofluorometer. Data were analyzed by non-linear regression (Hill equation) to generate a dose-response curve. The calculated IC50 value is the concentration of the test compound that caused a 50% decrease in the maximal FRET intensity.

T1 sequence (Q16539 whole entry): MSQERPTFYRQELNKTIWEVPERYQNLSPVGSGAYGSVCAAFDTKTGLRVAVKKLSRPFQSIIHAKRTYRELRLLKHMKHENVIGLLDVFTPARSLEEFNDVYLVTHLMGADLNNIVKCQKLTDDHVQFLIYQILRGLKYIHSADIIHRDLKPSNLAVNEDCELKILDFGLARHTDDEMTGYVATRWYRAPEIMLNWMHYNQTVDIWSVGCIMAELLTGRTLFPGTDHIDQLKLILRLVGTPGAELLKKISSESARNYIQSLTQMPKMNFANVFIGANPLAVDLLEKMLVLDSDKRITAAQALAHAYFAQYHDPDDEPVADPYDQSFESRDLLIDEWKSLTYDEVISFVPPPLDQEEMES

`O=C(O)c1cc(-c2ccc(F)cc2F)c2cc[n+]([O-])c(-c3c(F)cccc3F)c2n1` [Example 2, 4-(2,4-Difluorophenyl)-8-(2,6-difluorophenyl)-1,7-naphthyridine-2-carboxylic acid 7-oxide]: the negative logarithm of the IC50 (pIC50) is 7.66.

`O=c1cc(-c2ccc(F)cc2Cl)c2cc[n+]([O-])c(-c3c(F)cccc3F)c2[nH]1` [Example 8, 4-(2-Chloro-4-fluorophenyl)-8-(2,6-difluorophenyl)-1,7-naphthyridin-2(1H)-one 7-oxide]: the negative-log IC50 (pIC50) is 8.22.

For `CN(C)CCNc1cc(-c2ccc(F)cc2Cl)c2cc[n+]([O-])c(-c3c(F)cccc3F)c2n1` [Example 10, N′-[4-(2-Chloro-4-fluorophenyl)-8-(2,6-difluorophenyl)-7-oxido-1,7-naphthyridin-2-yl]-N,N-dimethylethane-1,2-diamine], the pIC50 is 7.85.

For `O=c1cc(-c2ccc(F)cc2Cl)c2cc[n+]([O-])c(-c3c(Cl)cccc3Cl)c2[nH]1` [Example 12, 4-(2-Chloro-4-fluorophenyl)-8-(2,6-dichlorophenyl)-1,7-naphthyridin-2(1H)-one 7-oxide], the negative-log IC50 (pIC50) was 8.48.

Turning to `O=c1cc(-c2ccccc2Cl)c2ccnc(-c3c(Cl)cccc3Cl)c2[nH]1` [Example 17, 4-(2-Chlorophenyl)-8-(2,6-dichlorophenyl)-1,7-naphthyridin-2(1H)-one], the pIC50 is 7.89.

Regarding `O=c1cc(-c2ccccc2Cl)c2cc[n+]([O-])c(-c3c(Cl)cccc3Cl)c2[nH]1` [Example 18, 4-(2-Chlorophenyl)-8-(2,6-dichlorophenyl)-1,7-naphthyridin-2(1H)-one 7-oxide], the negative-log IC50 (pIC50) is 7.82.

Turning to `CNc1cc(-c2ccccc2Cl)c2cc[n+]([O-])c(-c3c(Cl)cccc3Cl)c2n1` [Example 19, 4-(2-Chlorophenyl)-8-(2,6-dichlorophenyl)-N-methyl-1,7-naphthyridin-2-amine 7-oxide], the pIC50 was 8.10.

As to `CN(C)c1cc(-c2ccccc2Cl)c2cc[n+]([O-])c(-c3c(Cl)cccc3Cl)c2n1` [Example 20, 4-(2-Chlorophenyl)-8-(2,6-dichlorophenyl)-N,N-dimethyl-1,7-naphthyridin-2-amine 7-oxide], the negative-log IC50 (pIC50) was 7.92.

As for `CS(=O)(=O)Nc1cc(-c2ccccc2Cl)c2cc[n+]([O-])c(-c3c(Cl)cccc3Cl)c2n1` [Example 21, N-[4-(2-Chlorophenyl)-8-(2,6-dichlorophenyl)-7-oxido-1,7-naphthyridin-2-yl]methanesulfonamide], the negative logarithm of the IC50 (pIC50) was 7.18.

Turning to `Nc1cc(-c2ccccc2Cl)c2cc[n+]([O-])c(-c3c(Cl)cccc3Cl)c2n1` [Example 22, 4-(2-Chlorophenyl)-8-(2,6-dichlorophenyl)-1,7-naphthyridin-2-amine 7-oxide], the pIC50 is 7.07.

Consider `[O-][n+]1ccc2c(-c3ccc(F)cc3Cl)ncnc2c1-c1c(F)cccc1F` [Example 26, 4-(2-Chloro-4-fluorophenyl)-8-(2,6-difluorophenyl)pyrido[3,4-d]pyrimidine 7-oxide], for which the negative-log IC50 (pIC50) was 7.46.

Turning to `[O-][n+]1ccc2c(-c3ccc(F)cc3Cl)ncnc2c1-c1c(Cl)cccc1Cl` [Example 30, 4-(2-Chloro-4-fluorophenyl)-8-(2,6-dichlorophenyl)pyrido[3,4-d]pyrimidine 7-oxide], the pIC50 was 7.55.

For the molecule `Nc1nc(-c2ccc(F)cc2Cl)c2cc[n+]([O-])c(-c3c(Cl)cccc3Cl)c2n1` [Example 32, 4-(2-Chloro-4-fluorophenyl)-8-(2,6-dichlorophenyl)pyrido[3,4-d]pyrimidin-2-amine 7-oxide], the negative logarithm of the IC50 (pIC50) is 7.47.

One may read the pIC50 as the IC50 on a negative log10 scale, so that one unit is a factor of ten.
